From patent publication US20260022096A1, “NOVEL SULFONAMIDES AND THEIR USE AS NEUROPROTECTIVE AND/OR NEURORESTORATIVE AGENTS” (GENECODE, priority 2022, published 2026)

Molecular target: T1, GFRα1-RET (Homo sapiens, UniProt P56159)
T1 construct: expressed in transfected cells; host or cells: MG87 murine fibroblasts, stably transfected
T1 sequence (P56159 25-429 limits assumed): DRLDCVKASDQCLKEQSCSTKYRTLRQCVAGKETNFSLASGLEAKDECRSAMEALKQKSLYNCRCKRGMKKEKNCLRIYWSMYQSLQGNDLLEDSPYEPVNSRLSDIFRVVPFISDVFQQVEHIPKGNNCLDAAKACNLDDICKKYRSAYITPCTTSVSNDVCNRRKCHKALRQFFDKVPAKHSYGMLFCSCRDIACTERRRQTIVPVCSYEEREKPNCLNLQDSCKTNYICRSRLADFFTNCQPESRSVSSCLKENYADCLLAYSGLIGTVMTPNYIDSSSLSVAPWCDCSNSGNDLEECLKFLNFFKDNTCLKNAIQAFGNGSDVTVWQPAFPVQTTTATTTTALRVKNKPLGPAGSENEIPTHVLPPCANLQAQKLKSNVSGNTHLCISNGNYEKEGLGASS
Assay: Elk1 reporter-gene (luciferase) assay in cells expressing GFRα1-RET
Type: cell-based
Conditions: MG87 murine fibroblasts stably transfected with PathDetect Elk-1, GFRα1 and RET, 6 concentrations, agonist/activator activity
Description: For ECso determination, a dose-response test was performed using 6 concentrations of each tested compound. Dose-response curves were fitted using the sigmoidal dose-response (variable slope) analysis in GraphPad Prism program (Graph Pad Inc) and ECso of agonist/activator activity was calculated. Dose-response experiments were all performed in duplicate, two times independently.

| SMILES | EC50 [nM] |
| --- | --- |
| CC1(NS(=O)(=O)c2cc(Cl)c(O)c(N3[C@@H]4CC[C@H]3CN(C(=O)c3ccc(F)cc3Cl)C4)c2)CC1 [compound 101, 3-chloro-5-[(1S,5R)-3-(2-chloro-4-fluoro-benzoyl)-3,8-diazabicyclo[3.2.1]octan-8-yl]-4-hydroxy-N-(1-methylcyclopropyl) benzenesulfonamide] | 1000 to 10000 |
| CC1(NS(=O)(=O)c2cc(Cl)c(O)c(N3[C@@H]4CC[C@H]3CN(C(=O)c3ccc(F)cc3Cl)C4)c2)CCC1 [compound 102, 3-chloro-5-[(1S,5R)-3-(2-chloro-4-fluoro-benzoyl)-3,8-diazabicyclo[3.2.1]octan-8-yl]-4-hydroxy-N-(1-methylcyclobutyl) benzenesulfonamide] | < 1000 |
| CC(C)(C#N)NS(=O)(=O)c1cc(Cl)c(O)c(N2[C@@H]3CC[C@H]2CN(C(=O)c2ccc(F)cc2Cl)C3)c1 [compound 103] | 1000 to 10000 |
| CC(C)(NS(=O)(=O)c1cc(Cl)c(O)c(N2[C@@H]3CC[C@H]2CN(C(=O)c2ccc(F)cc2Cl)C3)c1)C(F)(F)F [compound 105, 3-chloro-5-[(1S,5R)-3-(2-chloro-4-fluoro-benzoyl)-3,8-diazabicyclo[3.2.1]octan-8-yl]-4-hydroxy-N-(2,2,2-trifluoro-1,1-dimethyl-ethyl)benzenesulfonamide] | < 1000 |
| CN(C1(C)COC1)S(=O)(=O)c1cc(Cl)c(O)c(N2[C@@H]3CC[C@H]2CN(C(=O)c2ccc(F)cc2Cl)C3)c1 [compound 106, 3-chloro-5-[(1S,5R)-3-(2-chloro-4-fluoro-benzoyl)-3,8-diazabicyclo[3.2.1]octan-8-yl]-4-hydroxy-N-methyl-N-(3-methyloxetan-3-yl)benzenesulfonamide] | < 1000 |
| CN(C(C)(C)C)S(=O)(=O)c1cc(Cl)c(O)c(N2[C@@H]3CC[C@H]2CN(C(=O)c2ccc(F)cc2Cl)C3)c1 [compound 107] | < 1000 |
| CC1(NS(=O)(=O)c2cc(Cl)c(O)c(N3[C@@H]4CC[C@H]3CN(C(=O)c3ccc(F)cc3Cl)C4)c2)COC1 [compound 108] | 1000 to 10000 |
| CN(C1COC1)S(=O)(=O)c1cc(Cl)c(O)c(N2[C@@H]3CC[C@H]2CN(C(=O)c2ccc(F)cc2Cl)C3)c1 [compound 109, 3-chloro-5-[(1S,5R)-3-(2-chloro-4-fluoro-benzoyl)-3,8-diazabicyclo[3.2.1]octan-8-yl]-4-hydroxy-N-methyl-N-(oxetan-3-yl)benzenesulfonamide] | 1000 to 10000 |
| C[C@H]1CN(C(=O)c2ccc(F)cc2Cl)CCN1c1cc(S(=O)(=O)NC(C)(C)C)cc(Cl)c1O [compound 110, N-tert-butyl-3-chloro-5-[(2S)-4-(2-chloro-4-fluoro-benzoyl)-2-methyl-piperazin-1-yl]-4-hydroxy-benzenesulfonamide] | < 1000 |
| C[C@@H]1CN(C(=O)c2ccc(F)cc2Cl)CCN1c1cc(S(=O)(=O)NC(C)(C)C)cc(Cl)c1O [compound 111, N-tert-butyl-3-chloro-5-[(2R)-4-(2-chloro-4-fluoro-benzoyl)-2-methyl-piperazin-1-yl]-4-hydroxy-benzenesulfonamide] | < 1000 |
| CC(C)(C)NS(=O)(=O)c1cc(Cl)c(OCCO)c(N2[C@@H]3CC[C@H]2CN(C(=O)c2ccc(F)cc2Cl)C3)c1 [compound 112] | < 1000 |
| COCCOc1c(Cl)cc(S(=O)(=O)NC(C)(C)C)cc1N1[C@@H]2CC[C@H]1CN(C(=O)c1ccc(F)cc1Cl)C2 [compound 113] | < 1000 |
| COc1c(Cl)cc(S(=O)(=O)NC(C)(C)C)cc1N1[C@@H]2CC[C@H]1CN(C(=O)c1ccc(F)cc1Cl)C2 [compound 114, N-tert-butyl-3-chloro-5-[(1S,5R)-3-(2-chloro-4-fluoro-benzoyl)-3,8-diazabicyclo[3.2.1]octan-8-yl]-4-methoxy-benzenesulfonamide] | < 1000 |
| CCCN(C)S(=O)(=O)c1ccc(Cl)c(N2[C@@H]3CC[C@H]2CN(C(=O)c2ccc(F)cc2Cl)C3)c1 [compound 115, 4-chloro-3-[(1S,5R)-3-(2-chloro-4-fluoro-benzoyl)-3,8-diazabicyclo[3.2.1]octan-8-yl]-N-methyl-N-propyl-benzenesulfonamide] | < 1000 |
| Cc1ccc(S(=O)(=O)N2CCN(CCc3ccc(F)cc3)CC2)cc1N1[C@@H]2CC[C@H]1CN(C(=O)c1ccc(F)cc1Cl)C2 [compound 116, (2-chloro-4-fluoro-phenyl)-[(1S,5R)-8-[5-[4-[2-(4-fluorophenyl)ethyl]piperazin-1-yl]sulfonyl-2-methyl-phenyl]-3,8-diazabicyclo[3.2.1]octan-3-yl]methanone] | < 1000 |
| O=C(c1ccc(F)cc1Cl)N1C[C@H]2CC[C@@H](C1)N2c1cc(S(=O)(=O)N2CCC(c3ccccc3)CC2)cc2c1OCO2 [compound 117, (2-chloro-4-fluoro-phenyl)-[(1S,5R)-8-[6-[(4-phenyl-1-piperidyl)sulfonyl]-1,3-benzodioxol-4-yl]-3,8-diazabicyclo[3.2.1]octan-3-yl]methanone] | < 1000 |
| O=C(c1ccc(F)cc1Cl)N1C[C@H]2CC[C@@H](C1)N2c1cc(S(=O)(=O)N2CCC(c3ccccc3)CC2)cc2c1OCCO2 [compound 118, (2-chloro-4-fluoro-phenyl)-[(1S,5R)-8-[7-[(4-phenyl-1-piperidyl)sulfonyl]-2,3-dihydro-1,4-benzodioxin-5-yl]-3,8-diazabicyclo[3.2.1]octan-3-yl]methanone] | < 1000 |
| CN1CCc2cc(S(=O)(=O)N3CCC(c4ccccc4)CC3)cc(N3[C@@H]4CC[C@H]3CN(C(=O)c3ccc(F)cc3Cl)C4)c21 [compound 119, (2-chloro-4-fluoro-phenyl)-[(1S,5R)-8-[1-methyl-5-[(4-phenyl-1-piperidyl)sulfonyl]indolin-7-yl]-3,8-diazabicyclo[3.2.1]octan-3-yl]methanone] | < 1000 |
| CN1CCc2cc(S(=O)(=O)N3CCC(c4ccccc4)CC3)cc(N3[C@@H]4CC[C@H]3CN(C(=O)c3cc(F)c(F)cc3Cl)C4)c21 [compound 120, (2-chloro-4,5-difluoro-phenyl)-[(1S,5R)-8-[1-methyl-5-[(4-phenyl-1-piperidyl)sulfonyl]indolin-7-yl]-3,8-diazabicyclo[3.2.1]octan-3-yl]methanone] | < 1000 |
| CN(C)c1ccc(S(=O)(=O)N2CCC(c3ccccc3)CC2)cc1N1[C@@H]2CC[C@H]1CN(C(=O)c1ccc(F)cc1Cl)C2 [compound 121, (2-chloro-4-fluoro-phenyl)-[(1S,5R)-8-[2-(dimethylamino)-5-[(4-phenyl-1-piperidyl)sulfonyl]phenyl]-3,8-diazabicyclo[3.2.1]octan-3-yl]methanone] | < 1000 |
| CN(C)c1ccc(S(=O)(=O)N2CCC(c3ccccc3)CC2)cc1N1[C@@H]2CC[C@H]1CN(C(=O)c1cc(F)c(F)cc1Cl)C2 [compound 122, (2-chloro-4,5-difluoro-phenyl)-[(1S,5R)-8-[2-(dimethylamino)-5-[(4-phenyl-1-piperidyl)sulfonyl]phenyl]-3,8-diazabicyclo[3.2.1]octan-3-yl]methanone] | < 1000 |
| CNC1CN(c2ccc(S(=O)(=O)N3CCC(c4ccccc4)CC3)cc2N2[C@@H]3CC[C@H]2CN(C(=O)c2ccc(F)cc2Cl)C3)C1 [compound 123, (2-chloro-4-fluoro-phenyl)-[(1S,5R)-8-[2-[3-(methylamino)azetidin-1-yl]-5-[(4-phenyl-1-piperidyl)sulfonyl]phenyl]-3,8-diazabicyclo[3.2.1]octan-3-yl]methanone] | < 1000 |
| Cc1c(O)cc(S(=O)(=O)N2CCC(c3ccccc3)CC2)cc1N1[C@@H]2CC[C@H]1CN(C(=O)c1ccc(F)cc1Cl)C2 [compound 124, (2-chloro-4-fluoro-phenyl)-[(1S,5R)-8-[3-hydroxy-2-methyl-5-[(4-phenyl-1-piperidyl)sulfonyl]phenyl]-3,8-diazabicyclo[3.2.1]octan-3-yl]methanone] | < 1000 |
| N#Cc1ccc(S(=O)(=O)N2CCC(c3ccccc3)CC2)cc1N1[C@@H]2CC[C@H]1CN(C(=O)c1ccc(F)cc1Cl)C2 [compound 125] | < 1000 |
| COc1ccc(S(=O)(=O)NC(C)(C)C)cc1N1[C@@H]2CC[C@H]1CN(C(=O)c1cc(F)c(F)cc1Cl)C2 [compound 129, N-tert-butyl-3-[(1S,5R)-3-(2-chloro-4,5-difluoro-benzoyl)-3,8-diazabicyclo[3.2.1]octan-8-yl]-4-methoxy-benzenesulfonamide] | < 1000 |
| O=C(c1ccc(F)cc1Cl)N1C[C@H]2CC[C@@H](C1)N2c1cc(S(=O)(=O)N2CCC(F)CC2)cc2c1OCC2 [compound 130, (2-chloro-4-fluoro-phenyl)-[(1S,5R)-8-[5-[(4-fluoro-1-piperidyl)sulfonyl]-2,3-dihydrobenzofuran-7-yl]-3,8-diazabicyclo[3.2.1]octan-3-yl]methanone] | < 1000 |
| CC1(C)COCCN1S(=O)(=O)c1cc(Cl)c(O)c(N2[C@@H]3CC[C@H]2CN(C(=O)c2ccc(F)cc2Cl)C3)c1 [compound 131, [(1S,5R)-8-[3-chloro-5-(3,3-dimethylmorpholin-4-yl)sulfonyl-2-hydroxy-phenyl]-3,8-diazabicyclo[3.2.1]octan-3-yl]-(2-chloro-4-fluoro-phenyl)methanone] | < 1000 |
| Cc1c(Cl)cc(S(=O)(=O)N(C)C(C)(C)C)cc1N1[C@@H]2CC[C@H]1CN(C(=O)c1ccc(F)cc1Cl)C2 [compound 132, N-tert-butyl-3-chloro-5-[(1S,5R)-3-(2-chloro-4-fluoro-benzoyl)-3,8-diazabicyclo[3.2.1]octan-8-yl]-N,4-dimethyl-benzenesulfonamide] | < 1000 |
